Experimental data published in ChEMBL document CHEMBL5584314, “Identification of an m6A Natural Inhibitor, Lobeline, That Reverses Lenvatinib Resistance in Hepatocellular Tumors” (J Nat Prod, 2024).
Active and inactive are the calls of the source. The calls are words filed in the database; no cut-off is given here.

Experiments:
Type in all cases: cell-based
[1] = target: N6-adenosine-methyltransferase catalytic subunit (Homo sapiens) (UniProt Q86U44); assay: Inhibition of METTL3 in human Lenvatinib-resistant Huh7/Len cells assessed as effect on TET1 mRNA expression level at 2 uM incubated for 72 hrs by RT-PCR analysis
Chain of N6-adenosine-methyltransferase catalytic subunit (Homo sapiens) (Q86U44 whole entry): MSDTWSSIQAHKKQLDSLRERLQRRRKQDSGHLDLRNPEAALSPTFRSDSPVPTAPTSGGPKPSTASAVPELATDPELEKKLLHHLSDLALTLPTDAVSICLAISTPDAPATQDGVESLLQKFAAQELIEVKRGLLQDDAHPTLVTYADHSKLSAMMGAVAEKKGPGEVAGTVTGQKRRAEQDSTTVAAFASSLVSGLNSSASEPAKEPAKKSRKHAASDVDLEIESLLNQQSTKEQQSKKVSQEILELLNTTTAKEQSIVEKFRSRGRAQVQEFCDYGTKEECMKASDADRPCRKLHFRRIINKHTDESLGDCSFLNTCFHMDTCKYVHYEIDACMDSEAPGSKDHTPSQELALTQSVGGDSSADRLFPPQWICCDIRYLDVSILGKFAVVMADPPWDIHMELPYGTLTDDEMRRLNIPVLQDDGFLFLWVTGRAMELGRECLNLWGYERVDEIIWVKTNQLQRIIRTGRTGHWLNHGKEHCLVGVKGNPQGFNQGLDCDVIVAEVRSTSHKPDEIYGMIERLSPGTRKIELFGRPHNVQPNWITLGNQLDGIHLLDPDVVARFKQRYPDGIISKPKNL

[2] = target: N6-adenosine-methyltransferase catalytic subunit (Homo sapiens) (UniProt Q86U44); assay: Inhibition of METTL3 in human Lenvatinib-resistant Huh7/Len cells assessed as effect on LATS1 mRNA expression level at 2 uM incubated for 72 hrs by RT-PCR analysis
[3] = target: N6-adenosine-methyltransferase catalytic subunit (Homo sapiens) (UniProt Q86U44); assay: Inhibition of METTL3 in human Lenvatinib-resistant Huh7/Len cells assessed as effect on IFFO1 mRNA expression level at 2 uM incubated for 72 hrs by RT-PCR analysis
[4] = target: N6-adenosine-methyltransferase catalytic subunit (Homo sapiens) (UniProt Q86U44); assay: Inhibition of METTL3 in human Lenvatinib-resistant Huh7/Len cells assessed as effect on MMP3 mRNA expression level at 2 uM incubated for 72 hrs by RT-PCR analysis
[5] = target: N6-adenosine-methyltransferase catalytic subunit (Homo sapiens) (UniProt Q86U44); assay: Inhibition of METTL3 in human Lenvatinib-resistant Huh7/Len cells assessed as effect on SLC7A11 mRNA expression level at 2 uM incubated for 72 hrs by RT-PCR analysis
[6] = target: N6-adenosine-methyltransferase catalytic subunit (Homo sapiens) (UniProt Q86U44); assay: Inhibition of METTL3 in human Lenvatinib-resistant Huh7/Len cells assessed as effect on TIBIM6 mRNA expression level at 2 uM incubated for 72 hrs by RT-PCR analysis
[7] = target: N6-adenosine-methyltransferase catalytic subunit (Homo sapiens) (UniProt Q86U44); assay: Inhibition of METTL3 in human Lenvatinib-resistant Huh7/Len cells assessed as effect on MMP13 mRNA expression level at 2 uM incubated for 72 hrs by RT-PCR analysis
[8] = target: N6-adenosine-methyltransferase catalytic subunit (Homo sapiens) (UniProt Q86U44); assay: Inhibition of METTL3 in human Lenvatinib-resistant Huh7/Len cells assessed as effect on DEK mRNA expression level at 2 uM incubated for 72 hrs by RT-PCR analysis
[9] = target: N6-adenosine-methyltransferase catalytic subunit (Homo sapiens) (UniProt Q86U44); assay: Inhibition of METTL3 in human Lenvatinib-resistant Huh7/Len cells assessed as effect on ADAMTS9 mRNA expression level at 2 uM incubated for 72 hrs by RT-PCR analysis
[10] = target: N6-adenosine-methyltransferase catalytic subunit (Homo sapiens) (UniProt Q86U44); assay: Inhibition of METTL3 in human Lenvatinib-resistant Huh7/Len cells assessed as effect on FGFR3 mRNA expression level at 2 uM incubated for 72 hrs by RT-PCR analysis
[11] = target: N6-adenosine-methyltransferase catalytic subunit (Homo sapiens) (UniProt Q86U44); assay: Inhibition of METTL3 in human Lenvatinib-resistant Huh7/Len cells assessed as effect on EZH2 mRNA expression level at 2 uM incubated for 72 hrs by RT-PCR analysis
[12] = target: N6-adenosine-methyltransferase catalytic subunit (Homo sapiens) (UniProt Q86U44); assay: Inhibition of METTL3 in human Lenvatinib-resistant Huh7/Len cells assessed as effect on IFIT2 mRNA expression level at 2 uM incubated for 72 hrs by RT-PCR analysis
[13] = target: N6-adenosine-methyltransferase catalytic subunit (Homo sapiens) (UniProt Q86U44); assay: Inhibition of METTL3 in human Lenvatinib-resistant Huh7/Len cells assessed as effect on MYC mRNA expression level at 2 uM incubated for 72 hrs by RT-PCR analysis
[14] = target: N6-adenosine-methyltransferase catalytic subunit (Homo sapiens) (UniProt Q86U44); assay: Inhibition of METTL3 in human Lenvatinib-resistant Huh7/Len cells assessed as effect on UCK2 mRNA expression level at 2 uM incubated for 72 hrs by RT-PCR analysis
[15] = target: N6-adenosine-methyltransferase catalytic subunit (Homo sapiens) (UniProt Q86U44); assay: Inhibition of METTL3 in human Huh-7 cells assessed as down regulation of m6A RNA level at 2 uM incubated for 72 hrs by colorimetric analysis
[16] = target: N6-adenosine-methyltransferase catalytic subunit (Homo sapiens) (UniProt Q86U44); assay: Inhibition of METTL3 in human Lenvatinib-resistant Huh7/Len cells assessed as effect on CTSL mRNA expression level at 2 uM incubated for 72 hrs by RT-PCR analysis
[17] = target: N6-adenosine-methyltransferase catalytic subunit (Homo sapiens) (UniProt Q86U44); assay: Inhibition of METTL3 in human Lenvatinib-resistant Huh7/Len cells assessed as effect on HNF4A mRNA expression level at 2 uM incubated for 72 hrs by RT-PCR analysis
[18] = target: N6-adenosine-methyltransferase catalytic subunit (Homo sapiens) (UniProt Q86U44); assay: Inhibition of METTL3 in human Lenvatinib-resistant Huh7/Len cells assessed as effect on AKT1 mRNA expression level at 2 uM incubated for 72 hrs by RT-PCR analysis
[19] = target: N6-adenosine-methyltransferase catalytic subunit (Homo sapiens) (UniProt Q86U44); assay: Inhibition of METTL3 in human Lenvatinib-resistant Huh7/Len cells assessed as effect on NPCL1 mRNA expression level at 2 uM incubated for 72 hrs by RT-PCR analysis
[20] = target: N6-adenosine-methyltransferase catalytic subunit (Homo sapiens) (UniProt Q86U44); assay: Inhibition of METTL3 in human Lenvatinib-resistant Huh7/Len cells assessed as effect on GATA3 mRNA expression level at 2 uM incubated for 72 hrs by RT-PCR analysis
[21] = target: N6-adenosine-methyltransferase catalytic subunit (Homo sapiens) (UniProt Q86U44); assay: Inhibition of METTL3 in human Lenvatinib-resistant Huh7/Len cells assessed as effect on CRB3 mRNA expression level at 2 uM incubated for 72 hrs by RT-PCR analysis

Q: Which results are given for `O=C(NCc1cn2cc(CNCC3CCCCC3)ccc2n1)c1cc(=O)n2ccccc2n1`?
A: inhibition [1]: Active; inhibition [2]: Active; inhibition [3]: Active; inhibition [4]: Active; inhibition [5]: Active; inhibition [6]: Active; inhibition [7]: Active; inhibition [8]: Active; inhibition [9]: Active; inhibition [10]: Active; inhibition [11]: Active; inhibition [12]: Active; inhibition [13]: Active; inhibition [14]: Active; inhibition [15]: 18%; inhibition [16]: Active; inhibition [17]: Active; inhibition [18]: Active; inhibition [19]: Active; inhibition [20]: Active; inhibition [21]: Active
